Data: PubChem BioAssay (NCI)
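Briefly, cells in 96-well plates were exposed to five compound concentrations for 48 h, and endpoints were estimated by linear interpolation. GI50 marks 50% less growth. Definition used: TGI = concentration required for complete inhibition of growth.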

Columns and labels:
Experiment in all cases: DTP human tumour cell line panel, 48 h
OVCAR-3 ovarian = tested on: OVCAR-3 ovarian
RPMI-8226 leukemia = tested on: RPMI-8226 leukemia
ACHN renal = tested on: ACHN renal
CAKI-1 renal = tested on: CAKI-1 renal
OVCAR-8 ovarian = tested on: OVCAR-8 ovarian
A549 NSCLC = tested on: A549 NSCLC
SF-539 CNS = tested on: SF-539 CNS
M14 melanoma = tested on: M14 melanoma
UO-31 renal = tested on: UO-31 renal
BT-549 breast = tested on: BT-549 breast

SMILES	TGI (OVCAR-3 ovarian)	TGI (RPMI-8226 leukemia)	TGI (ACHN renal)	TGI (CAKI-1 renal)	TGI (OVCAR-8 ovarian)	TGI (A549 NSCLC)	TGI (SF-539 CNS)	TGI (M14 melanoma)	TGI (UO-31 renal)	GI50 (BT-549 breast)	TGI (BT-549 breast)	GI50 (RPMI-8226 leukemia)	GI50 (ACHN renal)	GI50 (CAKI-1 renal)	GI50 (A549 NSCLC)	GI50 (M14 melanoma)	GI50 (UO-31 renal)	GI50 (OVCAR-3 ovarian)	GI50 (OVCAR-8 ovarian)	GI50 (SF-539 CNS)
COCCOC(=O)C1=C(O)c2ccccc2S(=O)(=O)N1C	> 100 µM	> 100 µM	> 100 µM	> 100 µM	> 100 µM	> 100 µM	> 100 µM	> 100 µM	> 100 µM	–	–	–	–	–	–	–	–	–	–	–
[N-]=[N+]=NCCCn1c2c(c3ccc([N+](=O)[O-])cc3c1=O)C(=O)c1ccccc1-2	–	> 100 µM	> 100 µM	43.3 µM	0.061 µM	> 100 µM	–	> 100 µM	> 100 µM	27.4 µM	> 100 µM	6.04 µM	9.14 µM	5.11 µM	14.4 µM	> 100 µM	> 100 µM	–	–	–
C[C@]12CC=CC(=O)[C@@]1(C)CCC(=O)C2	> 100 µM	–	> 100 µM	> 100 µM	> 100 µM	> 100 µM	> 100 µM	> 100 µM	> 100 µM	–	–	–	–	–	–	–	–	–	–	–
Cc1ccc(S(=O)(=O)N/N=C2\CCCCC23CCC(=O)NC3)cc1 (stereo not given)	> 100 µM	> 100 µM	> 100 µM	> 100 µM	> 100 µM	> 100 µM	> 100 µM	> 100 µM	> 100 µM	–	–	–	–	–	–	–	–	–	–	–
CN(C)Cc1cc(C(F)(F)F)ccc1C(O)(c1ccccc1)c1ccccc1	> 100 µM	21.5 µM	29.9 µM	31.2 µM	35.8 µM	29.5 µM	32.7 µM	25.3 µM	28.5 µM	–	–	–	–	–	–	–	–	–	–	–
N#CCC(=O)N/N=C1/C(=O)N(c2ccc(Cl)cc2)C(=O)C(=O)C1c1nc2ccccc2s1 (stereo not given)	> 100 µM	–	> 100 µM	> 100 µM	> 100 µM	> 100 µM	–	> 100 µM	> 100 µM	–	–	–	–	–	–	–	–	–	–	–
CCCCCCCCCCCC(=O)OCCOCCOCCOCCOCCOC(=O)CCCCCCCCCCC	> 100 µM	> 100 µM	> 100 µM	> 100 µM	> 100 µM	> 100 µM	–	> 100 µM	> 100 µM	–	–	–	–	–	–	–	–	–	–	–
CC(=O)c1ccc(NC(=O)/C(CC(=O)c2sc(-c3cccnc3)nc2C)=N/NC(N)=O)cc1	> 100 µM	54.4 µM	56.1 µM	86 µM	> 100 µM	71.2 µM	–	> 100 µM	> 100 µM	–	–	–	–	–	–	–	–	–	–	–
O=C1C=CC(=O)C2C1C1(Cl)C(Cl)=C(Cl)C2(Cl)C1(Cl)Cl (stereo not given)	5.08 µM	> 100 µM	18.3 µM	12.1 µM	48.6 µM	26.5 µM	23.2 µM	13.3 µM	16.1 µM	–	–	4.78 µM	4.18 µM	2.84 µM	5.5 µM	3.35 µM	3.41 µM	2.03 µM	10.1 µM	6.46 µM
COc1ccc2c(c1)C(=O)/C(=C/c1cccc(OCC(=O)c3ccccc3)c1)O2	3.36 µM	–	3.38 µM	11.5 µM	31.4 µM	24.9 µM	13.8 µM	–	3.09 µM	3.63 µM	13.1 µM	–	1.79 µM	3.16 µM	4.93 µM	–	1.59 µM	1.83 µM	16.4 µM	3.79 µM
COc1cc(Nc2ncccc2C(=O)Nc2nc3ccc(F)cc3s2)cc(OC)c1OC	33 µM	–	> 100 µM	> 100 µM	> 100 µM	> 100 µM	> 100 µM	> 100 µM	> 100 µM	2.63 µM	> 100 µM	–	4.82 µM	3.15 µM	3.11 µM	3.08 µM	3.37 µM	2.77 µM	3.62 µM	3.84 µM
Cc1ccc(S(=O)(=O)OC2CC=CC2)cc1	> 100 µM	> 100 µM	> 100 µM	> 100 µM	> 100 µM	> 100 µM	–	> 100 µM	> 100 µM	–	–	–	–	–	–	–	–	–	–	–
CC(C)(C)c1cc([N+](=O)[O-])cc([N+](=O)[O-])c1O	> 10 µM	> 10 µM	> 10 µM	> 10 µM	> 10 µM	> 10 µM	> 10 µM	> 10 µM	> 10 µM	–	–	–	–	–	–	–	–	–	–	–
Nc1ncc(-c2cnn(C3CCNCC3)c2)cc1-c1nc2cc(Cl)ccc2o1	3.26 µM	–	3.08 µM	3.09 µM	–	3.11 µM	2.91 µM	3.25 µM	1.02 µM	1.61 µM	3.14 µM	–	1.65 µM	1.58 µM	1.53 µM	1.79 µM	0.484 µM	1.73 µM	–	1.55 µM
NC(CCCC(N)P(=O)(O)O)P(=O)(O)O (stereo not given)	> 100 µM	> 100 µM	> 100 µM	> 100 µM	> 100 µM	> 100 µM	> 100 µM	> 100 µM	> 100 µM	–	–	–	–	–	–	–	–	–	–	–
C=CC[P@]1(=O)O[C@H](c2ccccc2)[C@H](C)N1C	> 100 µM	> 100 µM	> 100 µM	–	> 100 µM	> 100 µM	> 100 µM	> 100 µM	> 100 µM	–	–	–	–	–	–	–	–	–	–	–
NC1=NN(c2ccccc2)C(=O)C1C(=O)CCC(=O)Nc1cccc(Cl)c1 (stereo not given)	> 100 µM	–	> 100 µM	> 100 µM	> 100 µM	> 100 µM	> 100 µM	> 100 µM	> 100 µM	–	–	–	–	–	–	–	–	–	–	–
O=C(Nc1ccc(Cl)cc1)C1C(=O)C(=O)N(c2ccc(Cl)cc2)C1=O (stereo not given)	> 100 µM	> 100 µM	> 100 µM	> 100 µM	> 100 µM	> 100 µM	> 100 µM	> 100 µM	> 100 µM	–	–	–	–	–	–	–	–	–	–	–
CC/C=C\C[C@H]1CC=C2C(=O)C=C[C@@H]2CC=CCCCC(=O)O[C@@H](CCCCC)CC=C2C(=O)C=C[C@@H]2CC=CCCCC(=O)O[C@@H](CCCCC)CC=C2C(=O)C=C[C@@H]2CC=CCCCC(=O)O[C@@H](CCCCC)CC=C2C(=O)C=C[C@@H]2CC=CCCCC(=O)O1	4.01 µM	5.83 µM	> 7.9 µM	–	> 7.9 µM	> 7.9 µM	> 7.9 µM	7.46 µM	2.84 µM	1.78 µM	5.21 µM	1.83 µM	2.62 µM	–	3.59 µM	2.09 µM	1.41 µM	1.66 µM	2.29 µM	2.22 µM
